Consider eight molecules from US10059697B2, “Compounds and combinations for the treatment of HIV” (priority 2015, dated 2018).

This test relates to HIV-1 expression in latently infected resting CD4 T cells from HIV-1 Infected Subjects on cART. The test can be described thus: microbe, parasite or virus in culture. The note with it: Human immunodeficiency virus 1, CD4+ T; for fold induction at 0.015 µM: 24 h; for fold induction at 0.3 µM: 0.25 h, read-out: Fold HIV Activation, Geometric Mean, 0.3 μM Carfilzomib, 15 min pulse; for fold induction at 0.04 µM: 4 h, read-out: Fold HIV Activation, Geometric Mean, 40 nM Romidepsin, 4 h pulse. Type of test: cell-based. The method, then:
The leukapheresis product was diluted with PBS and layered over Ficoll for isolation of PBMCs. PBMCs were treated with red blood cell lysis buffer and rested overnight (10 million cells/ml) in tissue culture medium (RPMI 1640 supplemented with 10% FBS and Pen/Strep) before the isolation of resting (CD69-CD25-HLA-DR-) CD4 T cells according to the manufacturer's instructions (EasySep Human CD4 T cell Enrichment Kit modified to also deplete CD69+, CD25+, or HLA-DR+ cells). Resting CD4 T cells were cultured in four replicate wells per condition with the indicated compounds or with dimethyl sulfoxide (DMSO, vehicle control) for 6 days. To assess latency reversal that occurs in response to mitogenic activation of T cells, cells were incubated with 50 ng/ml phorbol 12-myristate 13-acetate (PMA) and 500 ng/ml ionomycin. Unless otherwise indicated, continuous exposure was used. Where pulses are indicated, at the end of the pulse, cells were spun three times at 500×g for 5 min, supernatant was decanted and replaced with an equal volume of fresh media. When in combination with another compound that was not pulsed, the compound with continuous exposure was added back at the indicated concentration. The cultures were maintained in the presence of antivirals (elvitegravir and efavirenz at 100 nM each) to prevent viral spread and amplification in order to measure the quantity of virions produced (latency reversal) by the indicated compounds. At the end of the incubation period, cell-free culture supernatants were harvested and HIV-1 RNA levels were quantified by the COBAS® AmpliPrep/COBAS® TaqMan HIV-1 Test, v2.0 (Roche). Romidepsin was used as a control. Romidepsin is a HDAC inhibitor with HIV latency reversal activity (PLoS pathogens (2015), 11(9), e1005142). The combination of a phorbol ester (PMA) and a calcium ionophore (ionomycin) was also used as a mitogenic control that has strong HIV latency reversal activity. As this combination induces global T cell proliferation and activation, systemic administration would likely induce significant toxicity. As such, PMA and ionomycin are useful strictly as a tool to monitor the amount of virus that can be produced in response to a strongly activating stimuli.

SMILES strings stand for the structures. Like-named read-outs stand apart in the source and are kept apart here.

Turning to `CC(C)C[C@H](NC(=O)[C@H](Cc1ccccc1)NC(=O)c1cnccn1)B(O)O` [Bortezomib, bortezomib, reference compound], the fold induction at 0.015 µM (read-out: Fold HIV Activation, 15 nM bortezomib, 24 hr pulse, individual subjects, Table 8) was determined as 3.47; the fold induction at 0.015 µM (read-out: Fold HIV Activation, 15 nM bortezomib, 24 hr pulse, individual subjects, Table 9) was found to be 3.47; the fold induction at 0.015 µM (read-out: Fold HIV Activation, Geometric Mean, 15 nM Bortezomib 24 h pulse, geometric mean of subjects, Table 5 (n = 10)) amounted to 1.36; the fold induction at 0.015 µM (read-out: Fold HIV Activation, Geometric Mean, 15 nM bortezomib, 24 hr pulse, geometric mean of subjects, Table 8 (n = 2)) amounted to 3.64; the fold induction at 0.015 µM (read-out: Fold HIV Activation, Geometric Mean, 15 nM bortezomib, 24 hr pulse, geometric mean of subjects, Table 9 (n = 2)) was 3.64; the fold induction at 0.015 µM (read-out: Fold HIV Activation, Geometric Mean, 15 nM bortezomib, 24 hr pulse, geometric mean of subjects, Table 10 (n = 3)) was found to be 2.23.
Take `N#Cc1ncn(CC(=O)Nc2ccc3oc4ccccc4c3c2)n1` [Compound 1]: the fold induction at 1 µM (read-out: Fold HIV Activation, Geometric Mean, 1 μM Compound 1, geometric mean of subjects, Table 1 (n = 10)) is 1.03. Also, the fold induction at 3 µM reads like this: (read-out: Fold HIV Activation, Geometric Mean, 3 μM Compound 1, geometric mean of subjects, Table 1 (n = 10)) 2.94; (read-out: Fold HIV Activation, Geometric Mean, 3 μM Compound 1, geometric mean of subjects, Table 5 (n = 10)) 3.12; (read-out: Fold HIV Activation, Geometric Mean, 3 μM Compound 1, geometric mean of subjects, Table 6 (n = 9)) 3.53; (read-out: Fold HIV Activation, Geometric Mean, 3 μM Compound 1, geometric mean of subjects, Table 7 (n = 7)) 5.92. Further, where the note is “read-out: Fold HIV Activation, Geometric Mean, 6 μM Compound 1, geometric mean of subjects, Table 1 (n = 10)”, the fold induction at 6 µM came out at 6.32.
For the molecule `COC[C@H](NC(=O)c1cnc(C)s1)C(=O)N[C@@H](COC)C(=O)N[C@@H](Cc1ccccc1)C(=O)[C@@]1(C)CO1` [Oprozomib, oprozomib, reference compound], the fold induction at 0.1 µM (1 h, read-out: Fold HIV Activation, Geometric Mean, 100 nM Oprozomib, 1 hr pulse, geometric mean of subjects, Table 7 (n = 7)) was found to be 2.37.
Regarding `N#Cc1ncn(CC(=O)Nc2ccc3c(c2)C(=O)c2ccccc2-3)n1` [Compound 3, 2-(3-cyano-1H-1,2,4-triazol-1-yl)-N-(9-oxo-9H-fluoren-2-yl)acetamide], the fold induction at 6 µM (144 h, read-out: Fold HIV Activation, 6 μM Compound 3, 6 days, individual subjects, Table 3) was 3.75 and the fold induction at 6 µM (read-out: Fold HIV Activation, Geometric Mean, 6 μM Compound 3, geometric mean of subjects, Table 3 (n = 8)) was found to be 2.61. The fold induction at 1 µM (read-out: Fold HIV Activation, Geometric Mean, 1 μM Compound 3, geometric mean of subjects, Table 3 (n = 8)) came to 1.62. Also, the fold induction at 3 µM is, setting by setting: (read-out: Fold HIV Activation, Geometric Mean, 3 μM Compound 3, geometric mean of subjects, Table 3 (n = 8)) 2.31; (read-out: Fold HIV Activation, Geometric Mean, 3 μM Compound 3, geometric mean of subjects, Table 9 (n = 2)) 1.99; (read-out: Fold HIV Activation, Geometric Mean, 3 μM Compound 3, geometric mean of subjects, Table 12 (n = 3)) 2.59.
Take `COc1cc2c(cc1NC(=O)Cn1cnc(C#N)n1)oc1ccccc12` [Compound 2]: the fold induction at 1 µM turned out to be 1.04 (144 h, read-out: Fold HIV Activation, 1 μM Compound 2, 6 days, individual subjects, Table 2) and 1.09 (read-out: Fold HIV Activation, Geometric Mean, 1 μM Compound 2, geometric mean of subjects, Table 2 (n = 8)). For the same molecule, the fold induction at 6 µM runs as follows: (144 h, read-out: Fold HIV Activation, 6 μM Compound 2, 6 days, individual subjects, Table 2) 4.41; (read-out: Fold HIV Activation, Geometric Mean, 6 μM Compound 2, geometric mean of subjects, Table 2 (n = 8)) 3.56. Besides, the fold induction at 3 µM by setting is: (read-out: Fold HIV Activation, 3 μM Compound 2, individual subjects, Table 8) 3.42; (read-out: Fold HIV Activation, Geometric Mean, 3 μM Compound 2, geometric mean of subjects, Table 2 (n = 8)) 2.76; (read-out: Fold HIV Activation, Geometric Mean, 3 μM Compound 2, geometric mean of subjects, Table 8 (n = 2)) 2.46; (read-out: Fold HIV Activation, Geometric Mean, 3 μM Compound 2, geometric mean of subjects, Table 11 (n = 3)) 2.75.
In the case of `C#CCOc1cc2c(cc1NC(=O)Cn1cnc(C#N)n1)oc1ccccc12` [Compound 4, 2-(3-cyano-1H-1,2,4-triazol-1-yl)-N-(2-(prop-2-yn-1-yloxy)dibenzo[b,d]furan-3-yl)acetamide], the fold induction at 1 µM came out at 1.09 (144 h, read-out: Fold HIV Activation, 1 μM Compound 4, 6 days, individual subjects, Table 4) and 1.09 (read-out: Fold HIV Activation, Geometric Mean, 1 μM Compound 4, geometric mean of subjects, Table 4 (n = 5)). Further, the fold induction at 6 µM was 3.03 (144 h, read-out: Fold HIV Activation, 6 μM Compound 4, 6 days, individual subjects, Table 4) and 3.97 (read-out: Fold HIV Activation, Geometric Mean, 6 μM Compound 4, geometric mean of subjects, Table 4 (n = 5)). Besides, the fold induction at 3 µM is 3.54 (read-out: Fold HIV Activation, Geometric Mean, 3 μM Compound 4, geometric mean of subjects, Table 4 (n = 5)) and 3.54 (read-out: Fold HIV Activation, Geometric Mean, 3 μM Compound 4, geometric mean of subjects, Table 10 (n = 3)).
`CC(C)C[C@H](NC(=O)[C@H](CCc1ccccc1)NC(=O)CN1CCOCC1)C(=O)N[C@@H](Cc1ccccc1)C(=O)N[C@@H](CC(C)C)C(=O)[C@@]1(C)CO1` [Carfilzomib, carfilzomib, reference compound]: the fold induction at 0.3 µM is 1.04 (geometric mean of subjects, Table 6 (n = 9)); 0.94 (geometric mean of subjects, Table 11 (n = 3)); 0.94 (geometric mean of subjects, Table 12 (n = 3)).
For the molecule `C/C=C1\NC(=O)[C@H]2CSSCC/C=C/[C@H](CC(=O)N[C@H](C(C)C)C(=O)N2)OC(=O)[C@H](C(C)C)NC1=O` [Romidepsin, reference compound], the fold induction at 0.04 µM (geometric mean of subjects, Table 1 (n = 10)) came out at 2.73; the fold induction at 0.04 µM (geometric mean of subjects, Table 2 (n = 8)) was found to be 3.16; the fold induction at 0.04 µM (geometric mean of subjects, Table 3 (n = 8)) was found to be 3.16; the fold induction at 0.04 µM (geometric mean of subjects, Table 4 (n = 5)) was found to be 2.33.
